Active and inactive are the calls of the source. The calls are words filed in the database; no cut-off is given here.
Columns and labels:
[1] = Modulation of SGK1 mRNA expression in HCCD cells at 20 uM after 24 hrs by RT-PCR method relative to control; assay type: functional, Homo sapiens
[2] = test system: Mus musculus; assay: Toxicity in ob/ob mouse assessed as change in body weight at 3 mg/kg administered via oral gavage daily for 4 days measured on day 5 relative to control; assay type: organism-based; conditions: in vivo, 96 h
[3] = target: T1, Peroxisome proliferator-activated receptor alpha (Homo sapiens) (UniProt Q07869); assay: Transactivation of human Gal4-fused PPARalpha LBD expressed in African green monkey COS7 cells after 24 hrs by luciferase reporter gene assay relative to WY14643; assay type: cell-based
T1 sequence (whole entry): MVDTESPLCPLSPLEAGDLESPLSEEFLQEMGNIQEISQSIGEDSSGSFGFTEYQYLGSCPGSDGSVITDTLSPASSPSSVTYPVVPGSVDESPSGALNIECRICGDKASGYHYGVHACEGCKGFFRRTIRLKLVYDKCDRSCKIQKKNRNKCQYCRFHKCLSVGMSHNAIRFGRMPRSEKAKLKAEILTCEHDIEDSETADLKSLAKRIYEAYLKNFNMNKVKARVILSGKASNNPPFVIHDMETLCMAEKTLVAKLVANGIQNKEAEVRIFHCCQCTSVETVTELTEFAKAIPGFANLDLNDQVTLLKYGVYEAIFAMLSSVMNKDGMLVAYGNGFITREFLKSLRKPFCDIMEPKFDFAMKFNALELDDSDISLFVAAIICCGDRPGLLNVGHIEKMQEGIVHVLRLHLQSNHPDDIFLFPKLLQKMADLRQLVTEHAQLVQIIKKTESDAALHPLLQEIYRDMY

[4] = target: T2, NAD-dependent protein deacetylase sirtuin-1 (Homo sapiens) (UniProt Q96EB6); assay: Activation of recombinant human SIRT1 at 10 uM using C-terminal AMC labeled Arg-His-Lys-Lys (Ac) as substrate after 30 mins by FLUOR DE LYS fluorescent assay relative to control
T2 sequence (whole entry): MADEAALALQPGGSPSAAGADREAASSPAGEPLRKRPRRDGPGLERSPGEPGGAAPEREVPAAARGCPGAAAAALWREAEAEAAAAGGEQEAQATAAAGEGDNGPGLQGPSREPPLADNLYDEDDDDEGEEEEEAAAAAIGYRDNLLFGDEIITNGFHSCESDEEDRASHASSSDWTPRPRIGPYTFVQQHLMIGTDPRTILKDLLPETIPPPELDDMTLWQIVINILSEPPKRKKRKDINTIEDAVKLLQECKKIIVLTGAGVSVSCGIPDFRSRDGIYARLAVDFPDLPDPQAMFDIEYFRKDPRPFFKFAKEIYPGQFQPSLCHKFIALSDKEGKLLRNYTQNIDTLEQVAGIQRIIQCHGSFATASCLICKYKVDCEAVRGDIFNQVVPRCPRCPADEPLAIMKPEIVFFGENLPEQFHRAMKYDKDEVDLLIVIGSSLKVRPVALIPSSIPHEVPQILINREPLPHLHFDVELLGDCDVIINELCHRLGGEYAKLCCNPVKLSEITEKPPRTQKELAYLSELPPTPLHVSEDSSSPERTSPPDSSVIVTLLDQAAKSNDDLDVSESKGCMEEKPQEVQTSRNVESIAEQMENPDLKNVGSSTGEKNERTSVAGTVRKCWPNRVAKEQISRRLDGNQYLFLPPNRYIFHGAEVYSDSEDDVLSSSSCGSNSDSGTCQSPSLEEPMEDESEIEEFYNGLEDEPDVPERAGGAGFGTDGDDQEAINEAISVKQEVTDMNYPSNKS

[5] = test system: Mus musculus; assay: Toxicity in ob/ob mouse assessed as change in body weight at 8.4 uM/kg administered via oral gavage daily for 4 days measured on day 5 relative to control; assay type: organism-based; conditions: in vivo, 96 h, 8.4 µmol/kg
[6] = test system: Mus musculus; assay: Anti-diabetic activity in ob/ob mouse assessed as change in serum glucose levels at 8.4 uM/kg administered via oral gavage daily for 4 days measured on day 5 relative to control; assay type: functional
[7] = target: T3, Peroxisome proliferator-activated receptor gamma (Homo sapiens, UniProt P37231); assay: Transactivation of human Gal4-fused PPARgamma LBD expressed in African green monkey COS7 cells after 24 hrs by luciferase reporter gene assay; assay type: cell-based; conditions: read-out: EC50
T3 sequence (P37231 whole entry): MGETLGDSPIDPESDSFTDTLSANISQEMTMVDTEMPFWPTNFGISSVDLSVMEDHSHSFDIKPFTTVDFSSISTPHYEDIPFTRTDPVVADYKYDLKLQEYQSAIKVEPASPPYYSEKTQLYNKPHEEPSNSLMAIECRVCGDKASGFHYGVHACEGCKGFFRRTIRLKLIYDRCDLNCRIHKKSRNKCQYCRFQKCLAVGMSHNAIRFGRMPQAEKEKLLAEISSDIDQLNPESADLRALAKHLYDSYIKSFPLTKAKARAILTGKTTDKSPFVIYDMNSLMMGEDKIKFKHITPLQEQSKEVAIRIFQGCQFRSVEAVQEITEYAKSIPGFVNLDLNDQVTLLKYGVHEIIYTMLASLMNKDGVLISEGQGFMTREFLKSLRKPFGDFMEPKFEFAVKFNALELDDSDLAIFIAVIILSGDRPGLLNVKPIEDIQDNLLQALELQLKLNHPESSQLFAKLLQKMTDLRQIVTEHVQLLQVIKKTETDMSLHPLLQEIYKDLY

[8] = target: T4, Peroxisome proliferator-activated receptor alpha (Homo sapiens, UniProt Q07869); assay: Transactivation of human Gal4-fused PPARalpha LBD expressed in African green monkey COS7 cells after 24 hrs by luciferase reporter gene assay; assay type: cell-based
T4 sequence (Q07869 whole entry): T1 sequence (whole entry)

[9] = test system: Mus musculus; assay: Anti-diabetic activity in ob/ob mouse assessed as change in serum triglyceride levels at 8.4 uM/kg administered via oral gavage daily for 4 days measured on day 5 relative to control; assay type: functional
[10] = test system: Mus musculus; assay: Anti-diabetic activity in ob/ob mouse assessed as change in serum insulin levels at 8.4 uM/kg administered via oral gavage daily for 4 days measured on day 5 relative to control; assay type: functional
[11] = target: T5, Peroxisome proliferator-activated receptor delta (Homo sapiens) (UniProt Q03181); assay: Transactivation of human PPARdelta at 10 uM
T5 sequence (whole entry): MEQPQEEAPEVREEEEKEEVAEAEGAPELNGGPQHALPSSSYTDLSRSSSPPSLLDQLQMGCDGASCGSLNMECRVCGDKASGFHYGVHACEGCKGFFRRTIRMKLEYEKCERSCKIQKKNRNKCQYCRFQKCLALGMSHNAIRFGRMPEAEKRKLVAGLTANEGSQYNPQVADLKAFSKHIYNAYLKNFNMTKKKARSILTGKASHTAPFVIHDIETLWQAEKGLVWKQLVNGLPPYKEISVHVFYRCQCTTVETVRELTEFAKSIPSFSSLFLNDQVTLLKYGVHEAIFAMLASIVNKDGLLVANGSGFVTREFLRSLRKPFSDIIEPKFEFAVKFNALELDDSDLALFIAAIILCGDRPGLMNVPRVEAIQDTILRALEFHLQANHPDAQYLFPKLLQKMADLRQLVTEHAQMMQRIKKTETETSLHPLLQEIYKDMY

Row | SMILES | Activity [1] [%] | Activity [2] [%] | Emax [3] [%] | Activity [4] [%] | Activity [5] [%] | Activity [6] [%] | EC50 [7] [µM] | EC50 [8] [µM] | Activity [9] [%] | Activity [10] [%] | Activity [11]
1 | Cc1oc(-c2ccccc2)nc1CCOc1ccc(C[C@H](Nc2ccccc2C(=O)c2ccccc2)C(=O)O)cc1 [FARGLITAZAR] | 969 | 162 | 231 |  |  |  |  |  |  |  | 
2 | CN(CCOc1ccc(CC2SC(=O)NC2=O)cc1)c1ccccn1 (centres undefined) [ROSIGLITAZONE] | 119 | 100 |  | 5 |  |  |  |  |  |  | 
3 | COc1ccc(OC(=O)N(CC(=O)O)Cc2ccc(OCCc3nc(-c4ccccc4)oc3C)cc2)cc1 [MURAGLITAZAR] | 178 | 206 | 84 |  |  |  |  |  |  |  | 
4 | CCOC(=O)C(Cc1ccc(OCCn2c(=O)sc3cc(C(=O)/C=C/c4cc(OC)cc(OC)c4)ccc32)cc1)OCC (centres undefined) | -14 |  | 0 | 2 | 112 | -25 | 0.03 | 10 | -34 | -7 | inactive
